From ChEMBL document CHEMBL4665623, “Rational drug design for androgen receptor and glucocorticoids receptor dual antagonist” (Eur J Med Chem, 2019)
pIC50: −log10 of the molar value.

How the values were obtained:
[1] = biological target: T1, Androgen receptor (Homo sapiens) (UniProt P10275); assay: Antagonist activity at recombinant androgen receptor (unknown origin) transfected in human PC-3 cells co-transfected with PSA and luciferase at 10 uM incubated for 24 hrs by dual luciferase reporter gene assay relative to control; type: cell-based
T1 sequence (whole entry): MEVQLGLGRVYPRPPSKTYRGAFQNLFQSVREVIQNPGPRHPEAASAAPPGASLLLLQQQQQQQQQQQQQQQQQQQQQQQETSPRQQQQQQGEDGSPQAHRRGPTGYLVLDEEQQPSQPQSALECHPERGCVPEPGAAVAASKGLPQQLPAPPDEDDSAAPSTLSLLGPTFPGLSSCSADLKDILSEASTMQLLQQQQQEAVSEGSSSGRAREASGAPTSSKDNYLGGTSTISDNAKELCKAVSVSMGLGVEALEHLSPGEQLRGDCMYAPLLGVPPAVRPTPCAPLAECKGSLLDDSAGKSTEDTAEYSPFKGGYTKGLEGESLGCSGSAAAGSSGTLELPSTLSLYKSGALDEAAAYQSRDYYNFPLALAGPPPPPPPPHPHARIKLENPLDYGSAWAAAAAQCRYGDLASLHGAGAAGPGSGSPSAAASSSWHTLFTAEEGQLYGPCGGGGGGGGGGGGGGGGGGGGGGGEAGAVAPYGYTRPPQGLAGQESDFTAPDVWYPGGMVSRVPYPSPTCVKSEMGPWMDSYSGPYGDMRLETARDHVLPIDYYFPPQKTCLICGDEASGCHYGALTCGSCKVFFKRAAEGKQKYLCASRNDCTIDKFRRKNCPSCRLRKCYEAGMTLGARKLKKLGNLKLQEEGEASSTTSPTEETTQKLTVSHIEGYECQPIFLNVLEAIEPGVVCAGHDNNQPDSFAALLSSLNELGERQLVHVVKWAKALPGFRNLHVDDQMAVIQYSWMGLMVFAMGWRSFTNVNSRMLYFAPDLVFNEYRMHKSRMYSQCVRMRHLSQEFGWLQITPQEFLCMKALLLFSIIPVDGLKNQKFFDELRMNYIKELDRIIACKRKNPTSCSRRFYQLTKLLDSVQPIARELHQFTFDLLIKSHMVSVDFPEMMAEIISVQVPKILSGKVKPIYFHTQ

[2] = biological target: T2, Glucocorticoid receptor (Homo sapiens) (UniProt P04150); conditions: filed as antagonist, time 1.0 min
T2 sequence (whole entry): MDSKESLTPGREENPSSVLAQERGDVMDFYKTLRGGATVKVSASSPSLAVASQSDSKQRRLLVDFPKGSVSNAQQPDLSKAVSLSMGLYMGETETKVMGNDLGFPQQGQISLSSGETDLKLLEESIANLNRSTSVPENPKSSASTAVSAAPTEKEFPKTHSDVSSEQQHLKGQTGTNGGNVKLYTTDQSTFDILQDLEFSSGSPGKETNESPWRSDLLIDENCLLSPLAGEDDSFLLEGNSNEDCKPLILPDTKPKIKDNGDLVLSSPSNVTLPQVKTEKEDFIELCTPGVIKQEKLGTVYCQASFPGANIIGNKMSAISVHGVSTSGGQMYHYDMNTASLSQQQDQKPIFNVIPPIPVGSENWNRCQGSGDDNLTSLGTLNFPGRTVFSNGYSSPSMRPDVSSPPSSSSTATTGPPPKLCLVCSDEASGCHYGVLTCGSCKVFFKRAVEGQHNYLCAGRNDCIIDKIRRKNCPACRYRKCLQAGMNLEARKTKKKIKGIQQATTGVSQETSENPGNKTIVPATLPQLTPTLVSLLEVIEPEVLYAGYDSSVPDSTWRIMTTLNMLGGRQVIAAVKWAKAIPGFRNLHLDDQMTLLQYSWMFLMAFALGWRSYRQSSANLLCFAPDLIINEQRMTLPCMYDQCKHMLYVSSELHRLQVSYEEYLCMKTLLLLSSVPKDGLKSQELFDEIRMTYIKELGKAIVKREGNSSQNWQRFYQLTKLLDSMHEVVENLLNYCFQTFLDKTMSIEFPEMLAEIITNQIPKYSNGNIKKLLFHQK

[3] = biological target: T3, Androgen receptor (Rattus norvegicus) (UniProt P15207); conditions: filed as antagonist, time 1.0 min
T3 sequence (whole entry): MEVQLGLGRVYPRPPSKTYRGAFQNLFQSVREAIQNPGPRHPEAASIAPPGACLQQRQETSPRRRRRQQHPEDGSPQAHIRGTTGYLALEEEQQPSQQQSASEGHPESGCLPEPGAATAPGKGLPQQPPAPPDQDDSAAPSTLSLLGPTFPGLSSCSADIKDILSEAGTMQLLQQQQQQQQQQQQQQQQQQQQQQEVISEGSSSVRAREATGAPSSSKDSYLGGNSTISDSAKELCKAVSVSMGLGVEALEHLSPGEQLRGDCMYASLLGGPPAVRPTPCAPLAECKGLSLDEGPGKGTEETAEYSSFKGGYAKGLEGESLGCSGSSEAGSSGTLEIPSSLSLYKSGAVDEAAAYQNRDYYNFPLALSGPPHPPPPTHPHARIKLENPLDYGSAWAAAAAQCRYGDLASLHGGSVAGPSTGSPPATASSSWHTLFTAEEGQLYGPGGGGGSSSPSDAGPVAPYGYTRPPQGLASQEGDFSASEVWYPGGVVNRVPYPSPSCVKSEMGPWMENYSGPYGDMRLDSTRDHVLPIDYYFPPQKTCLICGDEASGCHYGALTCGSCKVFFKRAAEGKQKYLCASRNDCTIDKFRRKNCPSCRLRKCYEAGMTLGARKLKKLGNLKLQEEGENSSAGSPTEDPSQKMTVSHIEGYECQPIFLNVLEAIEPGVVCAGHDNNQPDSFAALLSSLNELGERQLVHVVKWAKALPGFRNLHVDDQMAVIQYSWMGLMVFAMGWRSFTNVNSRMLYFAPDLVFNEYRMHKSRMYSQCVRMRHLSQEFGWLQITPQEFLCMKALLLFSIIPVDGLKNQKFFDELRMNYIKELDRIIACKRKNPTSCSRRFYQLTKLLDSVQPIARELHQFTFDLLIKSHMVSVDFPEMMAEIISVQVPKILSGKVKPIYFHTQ

[4] = Effect on glucocorticoid receptor expression in human PC-3 cells at 10 uM incubated for 24 hrs by Western blot analysis; type: ADME, cell-based; conditions: pc-3, 24 h
Androgen receptor = biological target: T4, Androgen receptor (Homo sapiens, UniProt P10275); assay: Antagonist activity at recombinant androgen receptor (unknown origin) transfected in human LNCaP cells co-transfected with PSA and luciferase incubated for 24 hrs by dual luciferase reporter gene assay; type: cell-based
T4 sequence (P10275 whole entry): T1 sequence (whole entry)

[5] = Effect on androgen receptor expression in human LNCaP cells at 1 and 10 uM incubated for 24 hrs by Western blot analysis; type: ADME, cell-based; conditions: dose 1-10 µM
[6] = Antiproliferative activity against human 22Rv1 cells assessed as reduction in cell growth incubated for 72 hrs by MTT assay; conditions: H22, 72 h
LNCaP = assay: Antiproliferative activity against human LNCAP cells assessed as reduction in cell growth incubated for 72 hrs by MTT assay

inhibition [1] [%] | SMILES | further results
> 20 | COc1ccc([C@H](NC(=O)c2cccc(S(=O)(=O)N3C[C@H](C)C[C@@H](C)C3)c2)c2nccn2C)cc1 | 
> 20 | Cc1nc(-c2ccc(C(C)C)c(S(=O)(=O)Nc3cccc(C#N)c3)c2)cs1 | 
> 20 | CCc1ccc(-c2nn(C)c(=O)c3c2CCCC3)cc1S(=O)(=O)NCc1cccc(OC)c1 | 
> 20 | COc1cc2cc(C(=O)N[C@H](C)C(=O)Nc3nc4ccccc4s3)[nH]c2c(OC)c1OC | 
> 20 | COc1ccccc1[C@H]1[C@H](Oc2cccc(C#N)c2)C(=O)N1Cc1cccc(N2CCCC2=O)c1 | 

Second part, the compound before the results:

SMILES | inhibition [1] [%] | further results
CCOC(=O)C1CCN(C(=O)Cc2ccc(N(Cc3ccccc3)C(=O)COc3ccccc3)cc2)CC1 | > 20 | 
COc1cccc(-c2ccc(N3CCN(C(=O)CN(Cc4ccccc4)C(=O)c4ccccc4C)CC3)nn2)c1 | > 20 | 
NC(=O)c1ccn(-c2cccc(NC(=O)C3(NC(=O)NCc4ccccc4)CCCC3)c2)n1 | > 20 | 
CC#C[C@]1(O)CC[C@H]2[C@@H]3CCC4=CC(=O)CCC4=C3[C@@H](c3ccc(N(C)C)cc3)C[C@@]21C |  | Kapp [2]: 32 µM
CCOC(=O)c1ccc(NC(=O)c2cccc(S(=O)(=O)N3CCCc4ccccc43)c2)s1 |  | Kapp [3]: 15 µM; Activity [4]: Non-Toxic; pIC50 (Androgen receptor): 5.69; Activity [5]: Non-Toxic
CNC(=O)c1ccc(N2C(=S)N(c3ccc(C#N)c(C(F)(F)F)c3)C(=O)C2(C)C)cc1F [ENZALUTAMIDE] |  | Kapp [3]: 24 µM; pIC50 [6]: < 4.40; pIC50 (LNCaP): 5.10
